The source made the active and inactive calls. No cut-off for these calls is given here.
Columns and labels:
Huh-7 = experiment: Antiproliferative activity against human Huh-7 cells assessed as inhibition of cell growth; assay type: functional, cell-based
HeLa = experiment: Antiproliferative activity against human HeLa cells assessed as inhibition of cell growth; assay type: functional, cell-based
MDA-MB-231 [1] = experiment: Antiproliferative activity against human MDA-MB-231 cells assessed as inhibition of cell growth; assay type: functional, cell-based
SK-OV-3 = experiment: Antiproliferative activity against human SK-OV-3 cells assessed as inhibition of cell growth; assay type: functional, cell-based
A549 = experiment: Antiproliferative activity against human A549 cells assessed as inhibition of cell growth; assay type: functional, cell-based
PANC-1 = experiment: Antiproliferative activity against human PANC-1 cells assessed as inhibition of cell growth; assay type: functional, cell-based
HCT-116 = experiment: Antiproliferative activity against human HCT-116 cells assessed as inhibition of cell growth; assay type: functional, cell-based
SGC-7901 = experiment: Antiproliferative activity against human SGC-7901 cells assessed as inhibition of cell growth; assay type: functional, cell-based
4T1 [2] = experiment: Antiproliferative activity against mouse 4T1 cells assessed as inhibition of cell growth; assay type: functional, cell-based
MDA-MB-231 [3] = experiment: Antiproliferative activity against human MDA-MB-231 cells assessed as inhibition of cell growth pretreated with hENT1 inhibitor, dipyridamole at 10 uM followed by compound addition; assay type: functional, cell-based
MDA-MB-231 [4] = experiment: Antiproliferative activity against human MDA-MB-231 cells assessed as inhibition of cell growth incubated in presence of 10 uM imatinib; assay type: functional, cell-based
4T1 [5] = experiment: Antitumor activity against mouse 4T1 cells implanted in mouse assessed as tumor growth inhibition at 10 mg/kg administered for 15 days relative to control; assay type: functional; conditions: 4T1, 360 h, time 15 day, read-out: TGI
Cytochrome P450 3A2 [6] = target: T1, Cytochrome P450 3A2 (Rattus norvegicus, UniProt P05183); experiment: Inhibition of CYP3A2-mediated metabolite formation in rat liver microsomes assessed as reduction in N-(1-((2R,4R,5R)-3,3-difluoro-4-hydroxy-5-(hydroxymethyl)tetrahydrofuran-2-yl)-2-oxo-1,2-dihydropyrimidin-4-yl)pentadecanamide metabolism; assay type: ADME, Microsome
T1 sequence (P05183 whole entry): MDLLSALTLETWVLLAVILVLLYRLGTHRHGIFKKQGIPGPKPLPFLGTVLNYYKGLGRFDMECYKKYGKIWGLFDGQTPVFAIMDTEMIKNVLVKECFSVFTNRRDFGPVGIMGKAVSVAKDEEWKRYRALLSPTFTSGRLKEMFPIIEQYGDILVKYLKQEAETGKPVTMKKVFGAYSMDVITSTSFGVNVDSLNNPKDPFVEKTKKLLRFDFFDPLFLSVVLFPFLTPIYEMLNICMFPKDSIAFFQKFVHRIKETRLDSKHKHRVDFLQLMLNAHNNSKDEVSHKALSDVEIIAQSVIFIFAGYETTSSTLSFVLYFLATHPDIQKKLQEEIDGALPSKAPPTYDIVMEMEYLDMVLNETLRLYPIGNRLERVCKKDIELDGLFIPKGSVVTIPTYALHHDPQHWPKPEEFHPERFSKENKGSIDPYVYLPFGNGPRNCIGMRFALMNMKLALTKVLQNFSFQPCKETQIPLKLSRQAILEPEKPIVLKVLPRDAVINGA

MDA-MB-231 [7] = experiment: Induction of DNA damage in human MDA-MB-231 cells assessed as increase in phospho-gamma-H2A.X expression level at 0.3 to 3 uM; assay type: functional, cell-based; conditions: dose 0.3-3 µM
Cytochrome P450 3A2 [8] = target: T1, Cytochrome P450 3A2; experiment: Inhibition of CYP3A2 in rat liver microsomes using midazolam as substrate; assay type: ADME, Microsome
Cytochrome P450 1A2 = target: T2, Cytochrome P450 1A2 (Rattus norvegicus, UniProt P04799); experiment: Inhibition of CYP1A2 in rat liver microsomes using phenacetin as substrate; assay type: ADME, Microsome
T2 sequence (P04799 whole entry): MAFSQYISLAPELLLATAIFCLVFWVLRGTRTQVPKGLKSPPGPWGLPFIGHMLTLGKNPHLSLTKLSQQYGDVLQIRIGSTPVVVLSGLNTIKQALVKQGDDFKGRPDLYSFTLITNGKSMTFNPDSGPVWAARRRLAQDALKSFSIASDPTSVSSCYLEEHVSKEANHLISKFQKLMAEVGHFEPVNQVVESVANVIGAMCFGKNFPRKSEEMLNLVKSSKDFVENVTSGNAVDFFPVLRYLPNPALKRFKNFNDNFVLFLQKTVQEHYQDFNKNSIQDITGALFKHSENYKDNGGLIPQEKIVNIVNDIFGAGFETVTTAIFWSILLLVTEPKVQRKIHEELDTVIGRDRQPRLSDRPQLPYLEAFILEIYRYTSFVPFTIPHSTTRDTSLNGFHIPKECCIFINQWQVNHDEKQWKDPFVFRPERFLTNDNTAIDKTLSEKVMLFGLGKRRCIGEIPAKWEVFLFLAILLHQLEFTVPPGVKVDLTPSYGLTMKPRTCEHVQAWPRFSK

Cytochrome P450 2D1 = target: T3, Cytochrome P450 2D1 (Rattus norvegicus, UniProt P10633); experiment: Inhibition of CYP2D1 in rat liver microsomes using dextromethorphan as substrate; assay type: ADME, Microsome
T3 sequence (P10633 whole entry): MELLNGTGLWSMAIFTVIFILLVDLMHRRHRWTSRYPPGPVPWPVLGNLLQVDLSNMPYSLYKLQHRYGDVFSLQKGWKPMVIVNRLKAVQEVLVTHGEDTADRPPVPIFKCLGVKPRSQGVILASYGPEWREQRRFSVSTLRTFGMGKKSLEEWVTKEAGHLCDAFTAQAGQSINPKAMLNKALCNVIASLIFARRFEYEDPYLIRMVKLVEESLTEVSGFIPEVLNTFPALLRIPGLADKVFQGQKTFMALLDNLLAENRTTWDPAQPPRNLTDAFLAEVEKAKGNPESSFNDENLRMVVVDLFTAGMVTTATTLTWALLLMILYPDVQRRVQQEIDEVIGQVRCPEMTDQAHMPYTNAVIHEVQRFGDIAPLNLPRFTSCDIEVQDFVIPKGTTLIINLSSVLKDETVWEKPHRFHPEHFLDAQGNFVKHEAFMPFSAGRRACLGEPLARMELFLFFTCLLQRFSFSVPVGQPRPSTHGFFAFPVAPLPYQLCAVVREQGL

Cytochrome P450 2E1 = Cytochrome P450 2E1 (Rattus norvegicus, UniProt P05182); experiment: Inhibition of CYP2E1 in rat liver microsomes using chlorzoxazone as substrate; assay type: ADME, Microsome
Cytochrome P450 2C6 = target: T4, Cytochrome P450 2C6 (Rattus norvegicus, UniProt P05178); experiment: Inhibition of CYP2C6 in rat liver microsomes using diclofenac as substrate; assay type: ADME, Microsome
T4 sequence (P05178 whole entry): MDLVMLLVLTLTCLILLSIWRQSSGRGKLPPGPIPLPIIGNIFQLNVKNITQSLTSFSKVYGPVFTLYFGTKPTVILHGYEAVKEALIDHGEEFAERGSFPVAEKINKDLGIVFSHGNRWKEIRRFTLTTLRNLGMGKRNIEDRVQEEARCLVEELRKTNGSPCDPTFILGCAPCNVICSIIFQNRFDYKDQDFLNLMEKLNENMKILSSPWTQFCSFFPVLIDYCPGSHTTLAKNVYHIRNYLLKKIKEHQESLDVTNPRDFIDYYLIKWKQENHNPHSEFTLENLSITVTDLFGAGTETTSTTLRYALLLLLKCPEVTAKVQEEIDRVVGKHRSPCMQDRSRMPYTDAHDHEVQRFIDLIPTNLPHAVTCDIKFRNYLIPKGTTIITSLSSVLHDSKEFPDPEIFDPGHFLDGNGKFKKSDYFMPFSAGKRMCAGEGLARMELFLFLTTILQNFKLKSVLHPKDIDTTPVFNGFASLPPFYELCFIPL

4T1 [9] = experiment: Antitumor activity against mouse 4T1 cells implanted in mouse assessed as tumor growth inhibition at 5 mg/kg administered for 15 days relative to control; assay type: functional; conditions: 4T1, 360 h, time 15 day, read-out: TGI
[10] = Toxicity in mouse implanted with mouse 4T1 cells assessed as body weight loss at 5 to 10 mg/kg administered for 15 days; assay type: organism-based; conditions: 4t1, 360 h, dose 5-10 mg/kg, time 15 day
[11] = Toxicity in mouse implanted with mouse 4T1 cells assessed as pathological damage in heart at 5 to 10 mg/kg administered for 15 days by H and E staining based analysis; assay type: organism-based; conditions: 4t1, 360 h, dose 5-10 mg/kg, time 15 day
[12] = Toxicity in mouse implanted with mouse 4T1 cells assessed as pathological damage in liver at 5 to 10 mg/kg administered for 15 days by H and E staining based analysis; assay type: organism-based; conditions: 4t1, 360 h, dose 5-10 mg/kg, time 15 day
[13] = Toxicity in mouse implanted with mouse 4T1 cells assessed as pathological damage in kidney at 5 to 10 mg/kg administered for 15 days by H and E staining based analysis; assay type: organism-based; conditions: 4t1, 360 h, dose 5-10 mg/kg, time 15 day

Chain of Cytochrome P450 2E1 (P05182 whole entry): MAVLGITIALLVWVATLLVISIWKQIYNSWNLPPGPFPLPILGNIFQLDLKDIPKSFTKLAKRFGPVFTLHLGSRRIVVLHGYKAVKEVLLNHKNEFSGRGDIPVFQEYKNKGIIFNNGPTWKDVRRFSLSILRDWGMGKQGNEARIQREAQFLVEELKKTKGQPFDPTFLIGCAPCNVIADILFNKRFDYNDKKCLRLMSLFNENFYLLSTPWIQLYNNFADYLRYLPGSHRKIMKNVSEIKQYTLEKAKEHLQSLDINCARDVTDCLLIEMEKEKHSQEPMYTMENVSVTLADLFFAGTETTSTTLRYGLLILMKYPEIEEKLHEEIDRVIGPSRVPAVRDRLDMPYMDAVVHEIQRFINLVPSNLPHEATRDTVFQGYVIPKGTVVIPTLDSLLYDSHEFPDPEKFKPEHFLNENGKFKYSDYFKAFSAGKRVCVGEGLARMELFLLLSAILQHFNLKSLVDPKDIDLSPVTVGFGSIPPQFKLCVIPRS

## Nc1ccn([C@@H]2O[C@H](CO)[C@@H](O)C2(F)F)c(=O)n1 [GEMCITABINE]
Huh-7
  IC50: 740 nM
HeLa
  IC50: 1990 nM
MDA-MB-231 [1]
  IC50: 2010 nM
SK-OV-3
  IC50: 440 nM
A549
  IC50: 380 nM
PANC-1
  IC50: 1340 nM
HCT-116
  IC50: 3050 nM
SGC-7901
  IC50: 9320 nM
4T1 [2]
  IC50: 7170 nM
MDA-MB-231 [3]
  IC50: 7210 nM
MDA-MB-231 [4]
  IC50: 818 nM
4T1 [5]
  inhibition in vivo at 10 mg/kg: 58.7%

## CC(=O)N1CCN(c2ccc(OCC3COC(Cn4ccnc4)(c4ccc(Cl)cc4Cl)O3)cc2)CC1 (stereo unspecified) [KETOCONAZOLE]
Cytochrome P450 3A2 [6]
  inhibition (INH): Active

## CCCCCCCCCCCCCCC(=O)Nc1ccn([C@@H]2O[C@H](CO)[C@@H](O)C2(F)F)c(=O)n1
Huh-7
  IC50: 120 nM
HeLa
  IC50: 430 nM
MDA-MB-231 [1]
  IC50: 140 nM
SK-OV-3
  IC50: 620 nM
A549
  IC50: 140 nM
PANC-1
  IC50: 1080 nM
HCT-116
  IC50: 300 nM
SGC-7901
  IC50: 3700 nM
4T1 [2]
  IC50: 660 nM
MDA-MB-231 [3]
  IC50: 170 nM
MDA-MB-231 [4]
  IC50: 72 nM
MDA-MB-231 [7]
  Activity: Active
Cytochrome P450 3A2 [8]
  Ki: 52600 nM
Cytochrome P450 1A2
  Ki: 127000 nM
Cytochrome P450 2D1
  Ki: 179000 nM
Cytochrome P450 2E1
  Ki: 196000 nM
Cytochrome P450 2C6
  Ki: 203000 nM
4T1 [9]
  inhibition in vivo at 5 mg/kg: 73.2%
4T1 [5]
  inhibition in vivo at 10 mg/kg: 83.8%
[10]
  Activity: Non-Toxic
[11]
  Activity: Non-Toxic
[12]
  Activity: Non-Toxic
[13]
  Activity: Non-Toxic
